How the values were obtained:
[1] = xn = mol fraction of the nth substance listed; settings: 98 kPa, Liquid; for speed of sound: Frequency=3 MHz, Single path-length method; for mass density: Vibrating tube method
[2] = excess molar enthalpy (molar enthalpy of mixing); xn = mol fraction of the nth substance listed; settings: 298.15 K, 98 kPa, Liquid, Calvet calorimetry

Cn1ccnc1 [1-methylimidazole] + CC(C)O
[1]
Settings | mass density, 288.15 K [kg/m3] | mass density, 298.15 K [kg/m3] | mass density, 308.15 K [kg/m3] | mass density, 318.15 K [kg/m3] | mass density, 328.15 K [kg/m3] | speed of sound, 288.15 K [m/s] | speed of sound, 298.15 K [m/s] | speed of sound, 308.15 K [m/s] | speed of sound, 318.15 K [m/s] | speed of sound, 328.15 K [m/s]
x1 = 0.0508 | 803.32 | 794.92 | 786.26 | 777.31 | 767.99 | 1199.2 | 1164 | 1128.7 | 1093.2 | 1057.4
x1 = 0.1043 | 817.79 | 809.32 | 800.63 | 791.7 | 782.45 | 1224.9 | 1189.6 | 1154.6 | 1118.7 | 1083
x1 = 0.2003 | 843.18 | 834.63 | 825.91 | 817 | 807.86 | 1268.9 | 1233.4 | 1197.9 | 1162.5 | 1127.2
x1 = 0.3007 | 869.37 | 860.76 | 852.02 | 843.13 | 834.07 | 1313.8 | 1278.4 | 1242.9 | 1207.7 | 1172.6
x1 = 0.405 | 896.25 | 887.59 | 878.83 | 869.96 | 860.95 | 1360.7 | 1325.3 | 1289.7 | 1254.5 | 1219.5
x1 = 0.5046 | 921.64 | 912.93 | 904.15 | 895.28 | 886.27 | 1406.8 | 1371.1 | 1335.5 | 1300.1 | 1265
x1 = 0.6006 | 945.55 | 936.79 | 927.97 | 919.09 | 910.11 | 1451.7 | 1415.7 | 1379.6 | 1344 | 1308.6
x1 = 0.7034 | 970.8 | 962 | 953.15 | 944.24 | 935.27 | 1500.7 | 1464.1 | 1427.7 | 1391.6 | 1355.8
x1 = 0.8029 | 994.49 | 985.66 | 976.78 | 967.86 | 958.89 | 1547.2 | 1510.2 | 1473.3 | 1436.7 | 1400.5
x1 = 0.9031 | 1017.75 | 1008.9 | 1000.03 | 991.11 | 982.15 | 1592.8 | 1555.5 | 1518.1 | 1481.2 | 1444.6
x1 = 0.9536 | 1029.16 | 1020.32 | 1011.45 | 1002.55 | 993.6 | 1614.9 | 1577.5 | 1540 | 1502.9 | 1466.2
x1 = 1 | 1039.36 | 1030.52 | 1021.66 | 1012.76 | 1003.83 | 1634.1 | 1596.5 | 1559 | 1521.8 | 1485

[2]
Settings | excess molar enthalpy [kcal/mol]
x1 = 0.0518 | -0.0112
x1 = 0.1082 | -0.0304
x1 = 0.1974 | -0.0511
x1 = 0.2924 | -0.0734
x1 = 0.3342 | -0.0793
x1 = 0.3969 | -0.0848
x1 = 0.4954 | -0.0899
x1 = 0.5926 | -0.0846
x1 = 0.7041 | -0.0719
x1 = 0.798 | -0.0519
x1 = 0.8831 | -0.0294
x1 = 0.9538 | -0.0143
x1 = 1 | 0

— the NIST ThermoML archive (doi:10.1016/j.jct.2018.12.019)
